Experimental data from patent US20250019388A1, “STAT3 DEGRADERS AND USES THEREOF” (priority 2021, published 2025).

Columns and labels:
STAT3 [1] = target: T1, STAT3 (Homo sapiens, UniProt P40763); assay: STAT3 degradation in human ALCL cell lines SU-DHL-1 and SUP-M2; type: cell-based; conditions: SU-DHL-1 and SUP-M2 cell lines
ALCL cell lines = assay: Cellular phenotypic assays (GI50) in ALCL cell lines; type: cell-based; conditions: Homo sapiens; several ALCL cell lines
caspase 3/7 = assay: Caspase 3/7 activity in ALCL lines; type: cell-based, human; conditions: at similar concentrations
SU-DHL-1 cell line = assay: Washout experiments in the SU-DHL-1 cell line; type: cell-based, human
SU-DHL-1 xenografts = assay: Antitumor activity in SU-DHL-1 cell-line xenograft model; type: in vivo, NOD SCID mice
Protocol: (§1) The antitumor efficacy of Compound A ammonium hydrogen salt was evaluated in immunocompromised mice implanted with human ALCL cell lines SU-DHL-1 and SUP-M2. Protocols for testing STAT3 degraders in human cell line xenograft models can be found, for example, in WO 2020/206424, incorporated herein by reference.
(§2) The antitumor activity of Compound A ammonium hydrogen salt was evaluated in a human SU-DHL-1 cell-line xenograft model established in NOD SCID female mice. Tumor bearing mice (n=5/group) were administered either 0 (vehicle; PBS), 5, 10, 15, or 45 mg/kg Compound A once weekly (QW; Days 0, 7, and 14) or 0 (vehicle; PBS), 10, or 30 mg/kg Compound A once every two weeks (Q2W; Days 0 and 14). Animals administered Compound A QW were monitored until Day 25 post first dose and those administered Compound A Q2W were monitored until Day 71 post first dose.

[2] = Body weight in SU-DHL-1 xenograft study; type: in vivo, NOD SCID mice; conditions: IV route, SU-DHL-1 study
Protocol: as §2

SUP-M2 xenografts = assay: Antitumor activity in SUP-M2 cell-line xenograft model; type: in vivo, NOD SCID mice; conditions: for tumor regression: 2 day on/5 days off
Protocol: as §1
(§3) The antitumor activity of Compound A ammonium hydrogen salt was evaluated in a human SUP-M2 cell-line xenograft model established in NOD SCID female mice. Tumor bearing mice (n=5/group) were administered either 0 (vehicle; PBS), 10, 20, or 30 mg/kg Compound A QW (Days 0, 7, and 14), 10 or 20 mg/kg Compound A on a 2 days on/5 days off schedule (Days 0, 1, 7, 8, 14, and 15), or 0 (vehicle; PBS), 20, or 40 mg/kg Compound A Q2W (Days 0 and 14). Animals administered Compound A QW or 2 on/5 off were monitored until Day 25 post first dose, and those administered Compound A Q2W were monitored until Day 52 post first dose.

[3] = Body weight in SUP-M2 xenograft study; type: in vivo, NOD SCID mice; conditions: IV route
Protocol: as §3

STAT3 [4] = assay: STAT3 degradation potency in hepatocytes; type: cell-based; conditions: across human, rat, and dog
STAT3 [5] = target: T2, STAT3 (Rattus norvegicus, UniProt P52631); assay: PK/PD study in rats, STAT3 degradation in tissues; type: in vivo; conditions: IV administration
T2 construct: from tissue
T2 sequence (P52631 whole entry): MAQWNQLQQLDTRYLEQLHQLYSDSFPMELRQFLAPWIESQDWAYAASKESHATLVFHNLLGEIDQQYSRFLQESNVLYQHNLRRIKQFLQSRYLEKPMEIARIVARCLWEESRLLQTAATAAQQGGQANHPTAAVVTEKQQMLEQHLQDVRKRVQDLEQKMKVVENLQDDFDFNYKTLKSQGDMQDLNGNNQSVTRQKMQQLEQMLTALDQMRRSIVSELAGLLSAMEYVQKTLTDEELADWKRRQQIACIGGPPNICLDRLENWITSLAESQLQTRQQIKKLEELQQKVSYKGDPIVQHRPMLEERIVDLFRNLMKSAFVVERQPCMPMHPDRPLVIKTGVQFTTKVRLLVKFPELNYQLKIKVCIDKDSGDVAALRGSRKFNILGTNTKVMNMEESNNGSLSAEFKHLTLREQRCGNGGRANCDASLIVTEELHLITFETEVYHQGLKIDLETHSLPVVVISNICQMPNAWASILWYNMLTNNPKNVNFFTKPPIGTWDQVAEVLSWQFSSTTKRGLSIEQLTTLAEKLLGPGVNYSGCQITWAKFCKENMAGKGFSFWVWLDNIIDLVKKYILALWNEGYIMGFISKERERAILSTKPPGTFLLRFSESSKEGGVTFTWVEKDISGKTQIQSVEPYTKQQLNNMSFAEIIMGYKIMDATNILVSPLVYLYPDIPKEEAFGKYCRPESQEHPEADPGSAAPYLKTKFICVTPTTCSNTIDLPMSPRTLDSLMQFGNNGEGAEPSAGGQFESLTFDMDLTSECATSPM

[6] = system: other STAT family members or other cellular proteins; assay: Proteome wide assessment in PBMC; type: cell-based
Aqueous solubility = type: physicochemical
Protocol: Compound A injection was manufactured as a frozen concentrated solution containing 10 mg/mL of free acid intended to be diluted with IV infusion vehicle. It has aqueous solubility greater than 10 mg/mL at pH 4.5 to 9.0 but less than 10 mg/mL at pH less than or equal to 3.

[7] = Phase 1 study, safety and tolerability; type: in vivo, human; conditions: patients, DL1
Protocol: Rationale: Targeted protein degraders represent a new therapeutic class of compounds that utilize the ubiquitin proteasome system to target the specific degradation of proteins. Compound A is a protein degrader that targets signal transducers and activators of transcription (STAT)3, a transcription factor that plays an important role in hematological malignancies such as lymphomas and in solid tumors. Compound A is administered via intravenous infusion (IV) at the dose levels defined in the protocol on Days 1, 8, 15, and 22 of each 28-day cycle.
Patients who provide informed consent and meet the eligibility criteria for the study will be enrolled and treated with Compound A IV on Days 1, 8, 15, and 22 of a 28-day cycle. Patients will remain on study treatment until disease progression, unacceptable toxicity, withdrawal of consent, any study-specific discontinuation criteria are met, or the Investigator determines that it is in the best interest of the patient to discontinue study treatment.
Phase 1a: This part aims to characterize the safety and tolerability of IV weekly doses of Compound A in sequential cohorts. […]

STAT3 [8] = target: T1, STAT3; assay: STAT3 degradation in tumor, SU-DHL-1 tumor xenograft murine model; type: in vivo, mice; set-up: from tissue; host or cells: SU-DHL-1 xenograft tumour in immunocompromised mice; conditions: 10 mg/kg QW; observed for 48 hrs
STAT3 [9] = target: T1, STAT3; assay: Phase 1 study, STAT3 degradation in blood (PBMCs); type: in vivo; set-up: Observed STAT3 degradation of 50-80% in PBMCs at Dose Level 1; from tissue; host or cells: blood / PBMCs of patients dosed IV with Compound A; conditions: patients
From the text: Rationale: Targeted protein degraders represent a new therapeutic class of compounds that utilize the ubiquitin proteasome system to target the specific degradation of proteins.

T1 sequence (P40763 whole entry): as the sequence (P52631 whole entry) above, with D311E, D760E counted along it

With `CC(=O)N1CC[C@H]2CC[C@@H](C(=O)N[C@@H](CCC(N)=O)COc3cccc(CCCC(=O)N[C@H](C(=O)N4C[C@H](O)C[C@H]4C(=O)N[C@@H](C)c4ccc(-c5scnc5C)cc4)C(C)(C)C)c3Cl)N2C(=O)[C@@H](NC(=O)c2cc3cc(C(=O)P(=O)(O)O)ccc3[nH]2)C1` [Compound A, (2-(((5S,8S,10aR)-3-acetyl-8-(((S)-5-amino-1-(2-chloro-3-(4-(((S)-1-((2S,4R)-4-hydroxy-2-(((S)-1-(4-(4-methylthiazol-5-yl)phenyl)ethyl)carbamoyl)pyrrolidin-1-yl)-3,3-dimethyl-1-oxobutan-2-yl)amino)-4-oxobutyl)phenoxy)-5-oxopentan-2-yl)carbamoyl)-6-oxodecahydropyrrolo[1,2-a][1,5]diazocin-5-yl)carbamoyl)-1H-indole-5-carbonyl)phosphonic acid] the “STAT3 degradation (concentration)” value (STAT3 [1]) was at most 11.8 ± 2.3 nM, the GI50 (ALCL cell lines) was 8.1 to 57.4 nM and the “caspase 3/7 activity, a marker of apoptosis” value (caspase 3/7) was “induced caspase 3/7 activity”. The “duration of sustained STAT3 degradation after which irreversible growth inhibition occurred” value (SU-DHL-1 cell line) was “approximately 48 hr”, the “tumor growth inhibition (TGI)” value (SU-DHL-1 xenografts; 5 mg/kg QW IV) was 79.9% and the TGI (SU-DHL-1 xenografts; 10 mg/kg Q2W IV) was 89.8%. The tumor regression (SU-DHL-1 xenografts; 10 mg/kg QW IV) was “complete regression”, the tumor regression (SU-DHL-1 xenografts; 15 mg/kg QW IV) was “complete regressions” and the TGI (SU-DHL-1 xenografts; 30 mg/kg Q2W IV) was 99.8%. For the same molecule, the tumor regression (SU-DHL-1 xenografts; 30 mg/kg Q2W IV, all animals) was “complete tumor regressions”, the tumor regression (SU-DHL-1 xenografts; 45 mg/kg QW IV) was “complete regressions” and the body weight change [2] was “slight to moderate body weight increases”. For the same molecule, the TGI (SUP-M2 xenografts; 10 mg/kg QW IV) was 83.8%, the tumor regression (SUP-M2 xenografts; 10 mg/kg) was “complete tumor regression in all animals” and the “animals with complete tumor regression” value (SUP-M2 xenografts; 20 mg/kg Q2W) was 4 of 5. The “animals with complete tumor regression” value (SUP-M2 xenografts; 20 mg/kg QW IV) was 4 of 5, the tumor regression (SUP-M2 xenografts; 20 mg/kg) was “complete tumor regression in all animals” and the “animals with complete tumor regression” value (SUP-M2 xenografts; 30 mg/kg QW IV) was 5 of 5. For the same molecule, the “animals with complete tumor regression” value (SUP-M2 xenografts; 40 mg/kg Q2W) was 5 of 5, the body weight change [3] was “little to slight body weight increases” and the “degradation potency of STAT3 in hepatocytes” value (STAT3 [4]) was “comparable degradation potency”. For the same molecule, the “degradation of STAT3 protein in tissues” value (STAT3 [5]) was “significant degradation of STAT3 protein in multiple tissues”, the selectivity of degradation [6] was “does not degrade other STAT family members or other cellular proteins” and the solubility (Aqueous solubility; aqueous buffer, pH 4.5 to 9.0) was over 10000 µg/mL. The solubility (Aqueous solubility; pH 3, aqueous buffer, pH less than or equal to 3) was under 10000 µg/mL, the “safety and tolerability (DLTs, SAEs)” value [7] was “safe and well-tolerated with no DLTs or SAEs” and the “STAT3 degradation in tumor” value (STAT3 [8]) was “greater than 90%”. The “time of maximal STAT3 degradation post infusion” value (STAT3 [9]; DL1, Cycle 1 weeks 1 & 2) was 24 to 96 h, the “STAT3 degradation in PBMCs” value (STAT3 [9]; Dose Level 1) was 50-80% and the “duration of target degradation” value (STAT3 [9]; first dose level) was “At least 72 h”. The “maximum STAT3 knockdown in blood” value (STAT3 [9]; first dose level) was “up to 86%” and the “mean maximum STAT3 degradation in blood” value (STAT3 [9]; first dose level (DL1, 0.05 mg/kg IV), following first 2 doses of Cycle 1) was 66%.
